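Tested at 5 concentrations; 48 h exposure; 96-well plates; endpoints linearly interpolated, else capped at highest concentration. GI50 is the concentration that inhibits growth by half.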 Activity calls are given as the source filed them. Cut-off read from the data, not from the text of the source: active = GI50 up to about 1.1 µM and inactive = higher.
Tests used:
Experiment in all cases: DTP human tumour cell line panel, 48 h
[1] = tested on: A498
[2] = tested on: A549
[3] = tested on: BT-549
[4] = tested on: CAKI-1
[5] = tested on: CCRF-CEM
[6] = tested on: COLO 205
[7] = tested on: DU-145
[8] = tested on: EKVX
[9] = tested on: HCC 2998
[10] = tested on: HCT-116
[11] = tested on: HCT-15
[12] = tested on: HL-60
[13] = tested on: HOP-62
[14] = tested on: HOP-92
[15] = tested on: HT-29
[16] = tested on: Hs-578T
[17] = tested on: IGROV-1
[18] = tested on: K562
[19] = tested on: LOX IMVI
[20] = tested on: M14
[21] = tested on: MCF7
[22] = tested on: MDA-MB-231
[23] = tested on: MDA-MB-435
[24] = tested on: MDA-N
[25] = tested on: MOLT-4
[26] = tested on: Malme-3M
[27] = tested on: NCI-H226
[28] = tested on: NCI-H23
[29] = tested on: NCI-H460
[30] = tested on: NCI/ADR-RES
[31] = tested on: OVCAR-3
[32] = tested on: OVCAR-4
[33] = tested on: OVCAR-5
[34] = tested on: OVCAR-8
[35] = tested on: PC-3
[36] = tested on: RXF 393
[37] = tested on: SF-268
[38] = tested on: SF-295
[39] = tested on: SF-539
[40] = tested on: SK-MEL-28
[41] = tested on: SK-MEL-2
[42] = tested on: SK-MEL-5
[43] = tested on: SK-OV-3
[44] = tested on: SN12C
[45] = tested on: SNB-75
[46] = tested on: SR
[47] = tested on: SW-620
[48] = tested on: T47D
[49] = tested on: TK-10
[50] = tested on: U-251
[51] = tested on: UACC-257
[52] = tested on: UACC-62
[53] = tested on: UO-31
[54] = tested on: 786-0
[55] = tested on: ACHN
[56] = tested on: KM12
[57] = tested on: NCI-H522
[58] = tested on: RPMI-8226
[59] = tested on: SNB-19

Measured: GI50

O=c1c(C(c2ccccc2)c2c(O)oc3cc(O)ccc3c2=O)c(O)oc2cc(O)ccc12
inactive: [1] > 100 µM | [2] > 100 µM | [3] > 100 µM | [4] > 100 µM | [5] > 100 µM | [6] > 100 µM | [7] > 100 µM | [8] > 100 µM | [9] > 100 µM | [10] > 100 µM | [12] > 100 µM | [13] > 100 µM | [14] > 100 µM | [15] > 100 µM | [16] > 100 µM | [17] > 100 µM | [18] > 100 µM | [19] > 100 µM | [20] > 100 µM | [21] > 100 µM | [22] > 100 µM | [23] > 100 µM | [24] > 100 µM | [25] > 100 µM | [26] > 100 µM | [27] > 100 µM | [28] > 100 µM | [29] > 100 µM | [30] > 100 µM | [31] > 100 µM | [32] > 100 µM | [33] > 100 µM | [34] > 100 µM | [35] > 100 µM | [36] > 100 µM | [37] > 100 µM | [38] > 100 µM | [39] > 100 µM | [40] > 100 µM | [41] > 100 µM | [42] 52 µM | [43] > 100 µM | [44] > 100 µM | [45] > 100 µM | [46] > 100 µM | [47] > 100 µM | [48] > 100 µM | [49] > 100 µM | [50] > 100 µM | [51] > 100 µM | [52] > 100 µM | [53] > 100 µM
> 100 µM: [11]

CC12CC3OC(=O)C1COC14OC5(C2C1=O)C(O)(CCC1C4CC2OC24CC=CC(=O)C14C)C(=O)OC35C (stereo unspecified)
inactive: [54] 13.2 µM | [1] 18.8 µM | [2] 27 µM | [55] 16.4 µM | [3] 2.64 µM | [4] 13 µM | [5] 4.1 µM | [6] 10.3 µM | [7] 14.6 µM | [8] 32 µM | [9] 18.7 µM | [10] 11.6 µM | [12] 8.04 µM | [13] 20.9 µM | [14] 21.8 µM | [15] 28.5 µM | [16] > 100 µM | [17] 18.4 µM | [18] 12.8 µM | [56] 17.3 µM | [19] 11.3 µM | [20] 17.2 µM | [21] 8.85 µM | [22] 18.5 µM | [23] 13.6 µM | [24] 12.4 µM | [25] 15.5 µM | [26] 18.5 µM | [28] 15.4 µM | [29] 30.4 µM | [57] 5.6 µM | [30] 38.1 µM | [31] 13.9 µM | [32] 66.2 µM | [33] 18.4 µM | [34] 43.8 µM | [35] 20.3 µM | [58] 19.2 µM | [36] 3.99 µM | [37] 36.7 µM | [38] 24.8 µM | [39] 12.6 µM | [40] 8.47 µM | [41] 14.5 µM | [42] 3.88 µM | [43] 28.6 µM | [44] 21.5 µM | [59] 20 µM | [45] 76.7 µM | [46] 8.85 µM | [47] 12.4 µM | [48] 15.7 µM | [49] 13.6 µM | [50] 14.5 µM | [51] 13 µM | [52] 13.2 µM | [53] 16.9 µM
16.4 µM: [11]

— ChEMBL document CHEMBL1201862, “PubChem BioAssay data set” (2004)
